{"source": "patent EP1964562A1", "about": "“PHARMACEUTICAL COMPOSITIONS CONTAINING DERIVATIVE SUBSTANCES OF THIAZOLIDINEDIONES COMBINED WITH A BIGUANIDE FOR USE IN TYPE 2 DIABETES MELLITUS” (priority 2005, dated 2007)", "key": {"[1]": {"tested_on": "hepatic pioglitazone metabolism", "settings": "in vitro, molar concentration equal to pioglitazone; cited from earlier work"}, "[2]": {"tested_on": "animal models of diabetes", "settings": "animal models of type 2 diabetes; cited from earlier work"}, "[3]": {"target": "T1, serum proteins, particularly serum albumin (Homo sapiens, UniProt P02768)", "T1 construct": "host or cells: serum", "T1 sequence (P02768 25-609)": "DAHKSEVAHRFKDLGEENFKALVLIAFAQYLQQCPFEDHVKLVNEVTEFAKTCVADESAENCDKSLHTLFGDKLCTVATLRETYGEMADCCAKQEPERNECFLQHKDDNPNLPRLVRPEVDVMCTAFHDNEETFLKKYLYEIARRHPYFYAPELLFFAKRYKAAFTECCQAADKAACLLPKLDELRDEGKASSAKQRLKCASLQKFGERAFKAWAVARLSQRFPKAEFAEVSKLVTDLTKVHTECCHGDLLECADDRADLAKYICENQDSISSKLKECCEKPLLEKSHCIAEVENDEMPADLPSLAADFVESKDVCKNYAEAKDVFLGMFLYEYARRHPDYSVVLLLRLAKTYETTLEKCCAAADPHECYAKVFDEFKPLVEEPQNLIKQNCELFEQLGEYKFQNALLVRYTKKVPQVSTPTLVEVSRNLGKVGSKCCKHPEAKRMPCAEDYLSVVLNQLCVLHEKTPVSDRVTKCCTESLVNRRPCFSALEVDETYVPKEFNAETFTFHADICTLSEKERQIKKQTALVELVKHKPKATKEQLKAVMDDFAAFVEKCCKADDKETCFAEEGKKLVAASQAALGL", "settings": "serum albumin; cited from earlier work"}, "[4]": {"settings": "cited from earlier work"}, "lipid metabolism": {"tested_on": "lipid metabolism", "settings": "therapeutic doses, short and long term clinical studies; cited from earlier work"}, "[5]": {"tested_on": "individuals diagnosed with DM2 and obesity", "test": "Example 1: multicentric, randomized, double blind placebo-controlled trial, 8 weeks", "format": "in vivo, patients", "method": "A multicentric, randomized, double blind placebo-controlled trial was conducted. In which 600 individuals diagnosed with DM2 and obesity with a BMI higher than 35 kg/m^2 were included."}, "[6]": {"tested_on": "patients diagnosed with DM2 and obesity", "test": "Example 2: multicentric, randomized, double blind placebo-controlled trial, 12 weeks", "format": "in vivo", "settings": "compared to levels at admission", "method": "A multicentric, randomized, double blind placebo-controlled trial was conducted. In which 300 patients diagnosed with DM2 and obesity were included. The object of the study was to establish the reduction in lipid profile and in overweight."}, "P-450 activity": {"tested_on": "P-450 activity", "settings": "incubated with human P-450 liver microsomes; cited from earlier work"}, "[7]": {"settings": "cited from earlier work", "remark": "listed apart in the source"}, "[8]": {"tested_on": "serum proteins, particularly serum albumin", "settings": "human; cited from earlier work"}}, "note": "Where two headings read alike, the source gives them in different places.", "data": [{"smiles": "CC(=O)N1CCN(c2ccc(OCC3COC(Cn4ccnc4)(c4ccc(Cl)cc4Cl)O3)cc2)CC1", "note": "(centres unmarked) [Ketoconazole]", "values": [{"measurement": "inhibition of hepatic pioglitazone metabolism", "setting": "[1]", "result": "up to 85%"}]}, {"smiles": "CC(=O)c1ccc(CCOc2ccc(CC3SC(=O)NC3=O)cc2)nc1", "note": "(centres unmarked) [M-III]", "values": [{"measurement": "pharmacological activity", "setting": "[2]", "result": "pharmacologically active"}, {"measurement": "bound to serum albumin", "setting": "[3]", "result": "> 98", "unit": "%"}]}, {"smiles": "CC(O)c1ccc(CCOc2ccc(CC3SC(=O)NC3=O)cc2)nc1", "note": "(centres unmarked) [M-IV]", "values": [{"measurement": "pharmacological activity", "setting": "[2]", "result": "pharmacologically active"}, {"measurement": "bound to serum albumin", "setting": "[3]", "result": "> 98", "unit": "%"}]}, {"smiles": "CN(C)C(=N)N=C(N)N", "note": "[metformin, Metformin]", "values": [{"measurement": "increase of Tmax by food", "setting": "[4]; dose of 850 mg, with food", "result": 0.583, "unit": "h"}, {"measurement": "Tmax", "setting": "[4]; human, in vivo, po", "result": 2.5, "unit": "h"}, {"measurement": "maximum plasma concentration", "setting": "[4]; human, in vivo, po", "result": "≤ 4", "unit": "µg/mL"}, {"measurement": "non-absorbed fraction recovered in the feces", "setting": "[4]; human, in vivo, po", "result": "20-30%"}, {"measurement": "steady-state plasma concentrations", "setting": "[4]; human, in vivo, po", "result": "less than 1 µg/ml"}, {"measurement": "maximum plasma concentration", "setting": "[4]; human, plasma, po", "result": 1.5, "unit": "µg/mL"}, {"measurement": "plasma concentrations in cases of lactacidosis", "setting": "[4]; in vivo", "result": "exceed 5 µg/ml"}, {"measurement": "total cholesterol, LDL cholesterol and triglyceride levels", "setting": "lipid metabolism", "result": "reduces"}, {"measurement": "patients' weight change", "setting": "[5]", "result": "increased"}, {"measurement": "reduction in triglycerides", "setting": "[6]", "result": "no significant reduction"}]}, {"smiles": "CCc1ccc(CCOc2ccc(CC3SC(=O)NC3=O)cc2)nc1", "note": "(centres unmarked) [pioglitazone, Pioglitazone]", "values": [{"measurement": "inhibition of P-450 activity", "setting": "P-450 activity", "result": "did not inhibit"}, {"measurement": "apparent clearance, CL/F", "setting": "[7]; calculated", "result": "5 to 7", "unit": "L/h"}, {"measurement": "mean serum half-live", "setting": "[7]; human, serum", "result": "3 to 7", "unit": "h"}, {"measurement": "renal elimination", "setting": "[7]; in vivo", "result": "negligible"}, {"measurement": "time to reach steady-state serum concentrations", "setting": "[7]; in vivo", "result": "≤ 7", "unit": "days"}, {"measurement": "time to maximum concentrations", "setting": "[7]; oral administration at fasting", "result": "≤ 2", "unit": "h"}, {"measurement": "time until measurable in serum", "setting": "[7]; oral administration at fasting", "result": "≤ 30", "unit": "min"}, {"measurement": "bound to serum proteins", "setting": "[8]", "result": "> 99", "unit": "%"}]}]}
